Source: US4970214A, “Quinoline substituted oxomethyl or thioxomethyl glycine derivatives and aldose reductase inhibition therewith” (Nippon Shinyaku Co., Ltd., priority 1986, dated 1990)

Experiments:
[1] = tested on: amounts of inositol and galactitol in the sciatic nerve; assay: Inositol and galactitol in sciatic nerve of rats fed 20% galactose diet for 4 days; type: in vivo, rat (Sprague-Dawley); settings: 9 a.m. and 5 p.m., rat sciatic nerve
Description: (C) Non-fasted male rats of Sprague-Dawley strain (5 rats in one group) of 150-220 g body weight were used. To all groups was administered 20% galactose diet (a mixture of galactose and F-2 which is a product of Funahashi Farm) and fed for 4 days. The test compound was given orally at 9 a.m. and 5 p.m. from the first to the fourth day. On the fifth day, the rats were sacrificed, sciatic nerve was taken out, and the amounts of inositol and galactitol in the sciatic nerve were measured by the method as given before.

Male mice of ddY strain = assay: Acute toxicity, oral, rate of death and general symptoms; type: in vivo; settings: for rate of death: two weeks
Description: Male mice of ddY strain (5 weeks of age) were used (one group comprised 4 to 5 mice).

[2] = tested on: Accumulation of Galactitol in sciatic nerve; assay: Accumulation of galactitol in sciatic nerve after single oral galactose; type: in vivo, rat (Sprague-Dawley); settings: 4 hours prior to 5 g/kg galactose, rats sacrificed after 3 hours
Description: (B) Male rats of Sprague-Dawley strain (body weight: 150 to 200 g) were fasted overnight and used in the test (one group comprised 4 rats). To all groups were given 5 g/kg of galactose orally, then the rats were sacrificed after 3 hours, and sciatic nerve was taken out and weighed. The content of galactitol in the sciatic nerve was measured by high performance liquid chromatography in accordance with a method by Jean-Marie Dethy (Anal. Biochem. 143, 119, 1984). The test compound was given orally 4 hours prior to the administration of galactose. To the control group was given 0.5% methylcellulose.

aldose reductase [3] = molecular target: T1, aldose reductase (Bos taurus, UniProt P16116); assay: Activity of aldose reductase, in vitro; type: biochemical; settings: aldose reductase from crystal eye of cow
T1 construct: The aldose reductase used was that obtained from crystal eye of cow; from tissue; host or cells: cow eye lens
Description: The aldose reductase used was that obtained from crystal eye of cow and the measurement was done in vitro.

aldose reductase [4] = assay: Aldose reductase inhibiting action (statement in words, test not described)

| Structure (SMILES) | Inhibition Rate (%) ([1]; 5 mg/kg oral) | Inhibition Rate (%) ([1]; 10 mg/kg oral) | Inhibition Rate (%) ([1]; 20 mg/kg oral) | rate of death (Male mice of ddY strain; 500 mg/kg oral) | rate of death (Male mice of ddY strain; 1000 mg/kg oral) | Inhibition rate (%) against Accumulation of Galactitol in sciatic nerve ([2]; 10 mg/kg oral) [%] | Inhibition rate (%) against Accumulation of Galactitol in sciatic nerve ([2]; 20 mg/kg oral) [%] | Inhibition rate (%) against Accumulation of Galactitol in sciatic nerve ([2]; 50 mg/kg oral) [%] | Inhibition rate (%) against Accumulation of Galactitol in sciatic nerve ([2]; 100 mg/kg oral) [%] | case of death (Male mice of ddY strain; 3 g/kg oral) | IC50 (aldose reductase [3]) [µM] | aldose reductase inhibiting action (aldose reductase [4]) |
| --- | --- | --- | --- | --- | --- | --- | --- | --- | --- | --- | --- | --- |
| COc1ccc2c(C(=S)N(C)CC(=O)O)cccc2c1C(F)(F)F [Tolrestat, reference compound] | 34 | 86 | 96 | 2/4 | 3/4 | 21.01 | 28.26 | 68.00 | 95.43 | – | – | – |
| CCc1cc(C(=S)N(C)CC(=O)OCCO)c2cccc(C(F)(F)F)c2n1 [Compound 5, β-Hydroxyethyl ester of N-[(2-ethyl-8-trifluoromethylquinolin-4-yl)thioxomethyl]-N-methylglycine] | – | – | – | – | 0/4 | – | 13.98 | 79.66 | – | – | – | – |
| CN(CC(=O)OCCO)C(=S)c1cc(-c2ccccc2)nc2ccccc12 [Compound 1, β-Hydroxyethyl ester of N-[(2-phenylquinolin-4-yl)thioxomethyl]-N-methylglycine] | – | 45 | 67 | – | 0/4 | – | 54.88 | 84.57 | 92.57 | no case of death | > 8.7 | – |
| O=C(O)CNC(=O)c1cc(-c2ccccc2)nc2ccccc12 [[(2-phenylquinolin-4-yl)carbonyl]glycine] | – | – | – | – | – | – | – | – | – | – | – | does not exhibit the aldose reductase inhibiting action |
| Cc1cc(C(=S)N(C)CC(=O)OCCO)c2cccc(C(F)(F)F)c2n1 [Compound 2, β-Hydroxyethyl ester of N-[(2-methyl-8-trifluoromethylquinolin-4-yl)thioxomethyl]-N-methylglycine] | 27 | 46 | 77 | – | – | 45.37 | 91.28 | 98.19 | – | – | > 8.7 | – |
| CN(CC(=O)OCCO)C(=S)c1cc(-c2ccccc2F)nc2cc(F)ccc12 [Compound 3] | – | 26 | 37 | – | 0/4 | – | 32.68 | 70.78 | – | – | > 8.7 | – |
